For one series, the target named is T1, rat brain AChE (Rattus norvegicus, UniProt P37136).
T1 construct: Rat brain homogenate prepared in 10 ml/g 10 mM Tris, pH 7.4, plus 1% Triton X-100 was used as a source of AChE; from tissue; host or cells: rat brain homogenate (10 mM Tris, pH 7.4, 1% Triton X-100)
Nature of the series: biochemical.

Another series concerns the target T2, rat serum BChE (Rattus norvegicus, UniProt Q9JKC1).
T2 construct: rat serum was the source of BChE; from tissue; host or cells: rat serum
Briefly: biochemical.

For series [1] the following is noted: current use of THA limited; cited from earlier work.

This is an account of results in patent US5886007A (priority 1997, dated 1999).

Structures are written as SMILES. Where two headings read alike, the source gives them in different places.

T2 sequence (Q9JKC1 24-597): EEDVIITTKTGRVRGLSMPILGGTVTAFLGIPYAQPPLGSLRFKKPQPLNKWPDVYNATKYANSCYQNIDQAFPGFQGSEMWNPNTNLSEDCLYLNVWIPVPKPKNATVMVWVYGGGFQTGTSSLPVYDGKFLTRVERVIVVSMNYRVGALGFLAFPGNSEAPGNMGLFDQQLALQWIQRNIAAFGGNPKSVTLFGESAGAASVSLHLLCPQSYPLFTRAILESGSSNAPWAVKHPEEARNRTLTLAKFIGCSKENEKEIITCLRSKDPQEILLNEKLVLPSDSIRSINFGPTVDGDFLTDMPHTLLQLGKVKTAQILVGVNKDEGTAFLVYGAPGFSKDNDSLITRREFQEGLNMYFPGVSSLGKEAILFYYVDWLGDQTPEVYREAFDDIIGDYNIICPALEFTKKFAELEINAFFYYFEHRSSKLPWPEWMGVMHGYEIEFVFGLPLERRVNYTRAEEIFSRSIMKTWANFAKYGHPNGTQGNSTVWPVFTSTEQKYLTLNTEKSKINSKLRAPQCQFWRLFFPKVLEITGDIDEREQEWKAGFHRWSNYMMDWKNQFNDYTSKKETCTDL
T1 sequence (P37136 32-614): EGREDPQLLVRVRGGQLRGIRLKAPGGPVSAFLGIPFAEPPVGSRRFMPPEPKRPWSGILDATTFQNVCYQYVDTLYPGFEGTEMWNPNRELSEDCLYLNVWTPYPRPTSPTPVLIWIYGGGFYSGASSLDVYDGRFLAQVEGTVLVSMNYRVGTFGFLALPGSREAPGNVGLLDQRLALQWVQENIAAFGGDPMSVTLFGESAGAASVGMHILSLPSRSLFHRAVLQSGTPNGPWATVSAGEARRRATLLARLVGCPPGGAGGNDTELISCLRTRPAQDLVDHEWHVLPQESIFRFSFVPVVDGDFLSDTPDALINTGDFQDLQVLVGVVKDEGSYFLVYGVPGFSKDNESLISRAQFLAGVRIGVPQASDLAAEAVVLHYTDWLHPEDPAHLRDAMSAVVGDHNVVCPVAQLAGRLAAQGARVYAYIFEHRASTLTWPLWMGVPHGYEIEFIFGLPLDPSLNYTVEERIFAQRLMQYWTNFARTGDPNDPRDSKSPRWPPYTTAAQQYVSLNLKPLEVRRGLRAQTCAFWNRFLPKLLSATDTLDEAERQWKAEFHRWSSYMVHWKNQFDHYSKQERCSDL

As to `c1ccc2c(NCCCCCCCNc3c4c(nc5ccccc35)CCCC4)c3c(nc2c1)CCCC3` [1a, 1-7-n-Heptylene-bis-9,9'-amino-1,2,3,4-tetrahydroacridine], the “times more potent than THA in inhibiting rat brain AChE” value on rat brain AChE was 1000 times.
On to `c1ccc2c(NCCCCCCCCNc3c4c(nc5ccccc35)CCCC4)c3c(nc2c1)CCCC3` [1b, 1-8-n-Octylene-bis-9,9'-amino-1,2,3,4-tetrahydroacridine], for which the figures for the IC50 against rat serum BChE and on rat brain AChE were 216 nM and 0.5 nM, respectively. At rat brain AChE, this molecule returned a Selectivity of 432.0.
In the same order, the values of `c1ccc2c(NCCCCCCCCCCNc3c4c(nc5ccccc35)CCCC4)c3c(nc2c1)CCCC3` [1d, 1-10-n-Decylene-bis-9,9'-amino-1,2,3,4-tetrahydroacridine] are 360 nM, 2 nM and 180.0.
Take `c1ccc(CCCCNc2c3c(nc4ccccc24)CCCC3)cc1` [2a, (4-Phenyl-butyl)-(1,2,3,4-tetrahydro-acridine-9-yl)-amine]: half-maximal inhibition on rat brain AChE (IC50) was put at 1500 nM.
`c1ccc(CCCCCNc2c3c(nc4ccccc24)CCCC3)cc1` [2b, (5-Phenyl-pentyl)-(1,2,3,4-tetrahydro-acridine-9-yl)-amine]: the IC50 (as a rule, the concentration that gives 50% inhibition) against rat serum BChE is 500 nM; at rat brain AChE (pH 7.4, read-out: IC50 rat brain AChE), 1500 nM. Further, at rat brain AChE, the Selectivity is reported as 0.3.
With `c1ccc(CCCCCCNc2c3c(nc4ccccc24)CCCC3)cc1` [2c, (6-Phenyl-hexyl)-(1,2,3,4-tetrahydro-acridine-9-yl)-amine], the figures for the IC50 against rat serum BChE and against rat brain AChE were 800 nM and 520 nM, respectively. On rat brain AChE, this molecule yielded a Selectivity of 1.5.
For the molecule `c1ccc(CCCCCCCNc2c3c(nc4ccccc24)CCCC3)cc1` [2d, (7-Phenyl-heptyl)-(1,2,3,4-tetrahydro-acridine-9-yl)-amine], the IC50 on rat serum BChE (read-out: IC50 rat serum BChE) was determined as 1000 nM. Moreover, at rat brain AChE, the midpoint of inhibition, the IC50, lay at 360 nM and the Selectivity is reported as 2.8.
For `c1ccc(CCCCCCCCNc2c3c(nc4ccccc24)CCCC3)cc1` [2e, (8-Phenyl-octyl)-(1,2,3,4-tetrahydro-acridine-9-yl)-amine], the IC50 on rat serum BChE was found to be 2000 nM. At rat brain AChE, the IC50 stood at 220 nM; the Selectivity is 9.1; the “potency of 2e and THA relative to compound 1a against rat brain AChE” value is “weaker”; the “potency ranking within class / chain length dependence of AChE inhibition” value is “the most potent”. Further, at rat brain AChE, the “relative potency of 2e and THA against rat brain AChE” value is on record as “nearly equipotent”.
`c1ccc(CCCCCCCCCNc2c3c(nc4ccccc24)CCCC3)cc1` [2f, (9-Phenyl-nonyl)-(1,2,3,4-tetrahydro-acridine-9-yl)-amine] showed an IC50 at rat serum BChE of 10000 nM. At rat brain AChE, this molecule returned an IC50 of 3000 nM and a Selectivity of 3.3.
As to `c1ccc(CCCCCCCCCCNc2c3c(nc4ccccc24)CCCC3)cc1` [2g, (10-Phenyl-decyl)-(1,2,3,4-tetrahydro-acridine-9-yl)-amine], the IC50 at rat brain AChE came out at 3000 nM.
On to `Nc1c2c(nc3ccccc13)CCCC2` [THA, 9-amino-1,2,3,4-tetrahydroacridine], for which the hepatoxicity entry in series [1] is “serious hepatoxicity”.
